Patent publication US10597388B2, “Pyridazinone herbicides” (FMC CORPORATION, priority 2014, dated 2020)

Tests used:
Experiment in all cases: Test E greenhouse herbicide test, pre- and postemergence
Type in all cases: in vivo
[1] = test system: arrowleaf sida (Sida rhombifolia)
Summary of the method: (§1)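 Compounds in surfactant-containing solvent are applied to soil right after sowing (silt loam) and, in parallel, to 1- to 4-leaf plants in a peat-based medium. Weed control is scored visually on a 0 (none) to 100 (complete) scale at 14 to 21 d.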

[2] = test system: barnyardgrass (Echinochloa crus-galli)
Summary of the method: as §1

[3] = test system: beggarticks (hairy beggarticks, Bidens pilosa)
Summary of the method: as §1

[4] = test system: crabgrass, large (large crabgrass, Digitaria sanguinalis); conditions: Preemergence
Summary of the method: as §1

[5] = test system: field bindweed (Convolvulus arvensis)
Summary of the method: as §1

[6] = test system: foxtail, giant (giant foxtail, Setaria faberii); conditions: Preemergence
Summary of the method: as §1

[7] = test system: goosegrass (Eleusine indica); conditions: Preemergence
Summary of the method: as §1

[8] = test system: johnsongrass (Sorghum halepense); conditions: Preemergence
Summary of the method: as §1

kochia (Kochia scoparia) = test system: kochia (Kochia scoparia)
Summary of the method: as §1

[9] = test system: momingglory (Ipomoea coccinea); conditions: Preemergence
Summary of the method: as §1

[10] = test system: nightshade (eastern black nightshade, Solanum ptycanthum); conditions: Preemergence
Summary of the method: as §1

[11] = test system: nutsedge, yellow (yellow nutsedge, Cyperus esculentus); conditions: Preemergence
Summary of the method: as §1

[12] = test system: panicum, fall (fall panicum, Panicum dichotomiflorum)
Summary of the method: as §1

[13] = test system: ragweed (common ragweed, Ambrosia elatior)
Summary of the method: as §1

[14] = test system: sandbur (southem sandbur, Cenchrus echinatus)
Summary of the method: as §1

[15] = test system: surinam grass (Brachiaria decumbens); conditions: Preemergence
Summary of the method: as §1

[16] = test system: velvetleaf (Abutilon theophrasti); conditions: Preemergence
Summary of the method: as §1

[17] = 62 g ai/ha, Postemergence, scale 0 to 100 (0 no effect, 100 complete control)
[18] = 62 g ai/ha, Preemergence, scale 0 to 100 (0 no effect, 100 complete control)
[19] = 125 g ai/ha, Postemergence, scale 0 to 100 (0 no effect, 100 complete control)
[20] = 250 g ai/ha, Postemergence, scale 0 to 100 (0 no effect, 100 complete control)
[21] = Postemergence, 31 g ai/ha, visual, scale 0 no effect to 100 complete control
[22] = Preemergence, 31 g ai/ha, scale 0 to 100, 0 no effect, 100 complete control
[23] = Preemergence, 125 g ai/ha, visual, scale 0 no effect to 100 complete control
[24] = Preemergence, 250 g ai/ha, visual, scale 0 no effect to 100 complete control
[25] = 62 g ai/ha, scale 0 to 100 (0 no effect, 100 complete control)
[26] = 31 g ai/ha, scale 0 to 100, 0 no effect, 100 complete control
[27] = 125 g ai/ha, visual, scale 0 no effect to 100 complete control
[28] = 250 g ai/ha, visual, scale 0 no effect to 100 complete control
[29] = 125 g ai/ha, scale 0 to 100 (0 no effect, 100 complete control)
[30] = 125 g ai/ha, Preemergence, scale 0 to 100 (0 no effect, 100 complete control)

CCc1sc2c(C)cc(C)cc2c1-c1c(O)c(C)nn(C)c1=O [Compound 57]
Plant response rating, Arrowleaf Sida [1, 17]: 20 | Plant response rating, Arrowleaf Sida [1, 18]: 0 | Plant response rating, Arrowleaf Sida [1, 19]: 40 | Plant response rating, Arrowleaf Sida [1, 20]: 45 | Plant response rating, Arrowleaf Sida [1, 21]: 10 | Plant response rating, Arrowleaf Sida [1, 22]: 0 | Plant response rating, Arrowleaf Sida [1, 23]: 50 | Plant response rating, Arrowleaf Sida [1, 24]: 40 | Plant response rating, Barnyardgrass [2, 17]: 85 | Plant response rating, Barnyardgrass [2, 18]: 0 | Plant response rating, Barnyardgrass [2, 19]: 90 | Plant response rating, Barnyardgrass [2, 20]: 90 | Plant response rating, Barnyardgrass [2, 21]: 80 | Plant response rating, Barnyardgrass [2, 22]: 0 | Plant response rating, Barnyardgrass [2, 23]: 75 | Plant response rating, Barnyardgrass [2, 24]: 100 | Plant response rating, Beggarticks [3, 17]: 100 | Plant response rating, Beggarticks [3, 18]: 100 | Plant response rating, Beggarticks [3, 19]: 100 | Plant response rating, Beggarticks [3, 20]: 100 | Plant response rating, Beggarticks [3, 21]: 100 | Plant response rating, Beggarticks [3, 22]: 100 | Plant response rating, Beggarticks [3, 23]: 100 | Plant response rating, Beggarticks [3, 24]: 100 | Plant response rating, Crabgrass, Large [4, 25]: 0 | Plant response rating, Crabgrass, Large [4, 26]: 0 | Plant response rating, Crabgrass, Large [4, 27]: 0 | Plant response rating, Crabgrass, Large [4, 28]: 0 | Plant response rating, Field Bindweed [5, 17]: 95 | Plant response rating, Field Bindweed [5, 18]: 95 | Plant response rating, Field Bindweed [5, 19]: 98 | Plant response rating, Field Bindweed [5, 20]: 95 | Plant response rating, Field Bindweed [5, 21]: 85 | Plant response rating, Field Bindweed [5, 22]: 70 | Plant response rating, Field Bindweed [5, 23]: 98 | Plant response rating, Field Bindweed [5, 24]: 100 | Plant response rating, Foxtail, Giant [6, 25]: 35 | Plant response rating, Foxtail, Giant [6, 26]: 5 | Plant response rating, Foxtail, Giant [6, 27]: 95 | Plant response rating, Foxtail, Giant [6, 28]: 95 | Plant response rating, Goosegrass [7, 25]: 0 | Plant response rating, Goosegrass [7, 26]: 10 | Plant response rating, Goosegrass [7, 27]: 5 | Plant response rating, Goosegrass [7, 28]: 5 | Plant response rating, Johnsongrass [8, 25]: 30 | Plant response rating, Johnsongrass [8, 26]: 0 | Plant response rating, Johnsongrass [8, 27]: 30 | Plant response rating, Johnsongrass [8, 28]: 35 | Plant response rating, Kochia (kochia (Kochia scoparia); [17]): 70 | Plant response rating, Kochia (kochia (Kochia scoparia); [18]): 65 | Plant response rating, Kochia (kochia (Kochia scoparia); [19]): 60 | Plant response rating, Kochia (kochia (Kochia scoparia); [20]): 75 | Plant response rating, Kochia (kochia (Kochia scoparia); [21]): 50 | Plant response rating, Kochia (kochia (Kochia scoparia); [22]): 20 | Plant response rating, Kochia (kochia (Kochia scoparia); [23]): 75 | Plant response rating, Kochia (kochia (Kochia scoparia); [24]): 100 | Plant response rating, Morningglory [9, 25]: 40 | Plant response rating, Morningglory [9, 29]: 100 | Plant response rating, Morningglory [9, 26]: 85 | Plant response rating, Morningglory [9, 28]: 100 | Plant response rating, Nightshade [10, 25]: 98 | Plant response rating, Nightshade [10, 29]: 98 | Plant response rating, Nightshade [10, 26]: 90 | Plant response rating, Nightshade [10, 28]: 98 | Plant response rating, Nutsedge, Yellow [11, 25]: 30 | Plant response rating, Nutsedge, Yellow [11, 29]: 60 | Plant response rating, Nutsedge, Yellow [11, 26]: 0 | Plant response rating, Nutsedge, Yellow [11, 28]: 70 | Plant response rating, Panicum, Fall [12, 17]: 60 | Plant response rating, Panicum, Fall [12, 18]: 98 | Plant response rating, Panicum, Fall [12, 19]: 70 | Plant response rating, Panicum, Fall [12, 30]: 100 | Plant response rating, Panicum, Fall [12, 20]: 80 | Plant response rating, Panicum, Fall [12, 21]: 40 | Plant response rating, Panicum, Fall [12, 22]: 95 | Plant response rating, Panicum, Fall [12, 24]: 100 | Plant response rating, Ragweed [13, 17]: 60 | Plant response rating, Ragweed [13, 18]: 100 | Plant response rating, Ragweed [13, 19]: 95 | Plant response rating, Ragweed [13, 30]: 100 | Plant response rating, Ragweed [13, 20]: 95 | Plant response rating, Ragweed [13, 21]: 50 | Plant response rating, Ragweed [13, 22]: 90 | Plant response rating, Ragweed [13, 24]: 100 | Plant response rating, Sandbur [14, 17]: 60 | Plant response rating, Sandbur [14, 18]: 0 | Plant response rating, Sandbur [14, 19]: 65 | Plant response rating, Sandbur [14, 30]: 30 | Plant response rating, Sandbur [14, 20]: 70 | Plant response rating, Sandbur [14, 21]: 50 | Plant response rating, Sandbur [14, 22]: 0 | Plant response rating, Sandbur [14, 24]: 80 | Plant response rating, Surinam Grass [15, 25]: 70 | Plant response rating, Surinam Grass [15, 29]: 85 | Plant response rating, Surinam Grass [15, 26]: 5 | Plant response rating, Surinam Grass [15, 28]: 95 | Plant response rating, Velvetleaf [16, 25]: 65 | Plant response rating, Velvetleaf [16, 29]: 95 | Plant response rating, Velvetleaf [16, 26]: 30 | Plant response rating, Velvetleaf [16, 28]: 100
